The values that follow are results of earlier work, collected in patent US6642378B1, “Process for the synthesis of beta-lactam derivatives” (Antibioticos S.p.A., priority 1999, dated 2003).

Read-outs that look alike come from different tables or passages of the source.

The conditions of data set [1]: data from MSDS (Material Safety Data Sheet)—OHS.
[2] abbreviates: oral, data from MSDS (Material Safety Data Sheet)—OHS.

As for `CC(C)=O` [Acetone], in data set [1], the Flash point is −18.0 °C. In the data set on rat (setting [2]), the “oral DL50 rat” value was 5800 mg/kg.

As for `CCOC(=O)OCC` [Diethylcarbonate], the Flash point in data set [1] is 33.0 °C. Also, the “oral DL50 rat” value in the data set with rat (in vivo, po) is 15000 mg/kg.

Turning to `COC(=O)OC` [Dimethylcarbonate], the Flash point in data set [1] is 21.7 °C. In the data set with rat (in vivo, po), the “oral DL50 rat” value is 13000 mg/kg.

As to `CCOC(C)=O` [Ethyl acetate], in data set [1], the Flash point is −4.0 °C. In the data set with rat (setting [2]), the “oral DL50 rat” value was 5620 mg/kg.

As for `COC(C)=O` [Methyl acetate], in data set [1], the Flash point is −10.0 °C. Also, the “oral DL50 rat” value in the data set on rat (in vivo, po) was 5480 mg/kg.

Consider `C1CCOC1` [Tetrahydrofuran], for which the Flash point in data set [1] was −17.2 °C. Besides, in the data set on rat (setting [2]), the “oral DL50 rat” value is 2816 mg/kg.
